Measured values taken from ChEMBL document CHEMBL3414499, “Characterization of two distinct structural classes of selective aldehyde dehydrogenase 1A1 inhibitors” (J Med Chem, 2015).
Activity calls are given as the source filed them.

Legend:
[1] = molecular target: T1, Aldehyde dehydrogenase X, mitochondrial (Homo sapiens) (UniProt P30837); experiment: Effect on recombinant human ALDH1B1 using propionaldehyde as substrate at 20 uM preincubated for 2 mins with NAD+ followed by substrate addition by UV-Vis spectrophotometric analysis
T1 sequence (whole entry): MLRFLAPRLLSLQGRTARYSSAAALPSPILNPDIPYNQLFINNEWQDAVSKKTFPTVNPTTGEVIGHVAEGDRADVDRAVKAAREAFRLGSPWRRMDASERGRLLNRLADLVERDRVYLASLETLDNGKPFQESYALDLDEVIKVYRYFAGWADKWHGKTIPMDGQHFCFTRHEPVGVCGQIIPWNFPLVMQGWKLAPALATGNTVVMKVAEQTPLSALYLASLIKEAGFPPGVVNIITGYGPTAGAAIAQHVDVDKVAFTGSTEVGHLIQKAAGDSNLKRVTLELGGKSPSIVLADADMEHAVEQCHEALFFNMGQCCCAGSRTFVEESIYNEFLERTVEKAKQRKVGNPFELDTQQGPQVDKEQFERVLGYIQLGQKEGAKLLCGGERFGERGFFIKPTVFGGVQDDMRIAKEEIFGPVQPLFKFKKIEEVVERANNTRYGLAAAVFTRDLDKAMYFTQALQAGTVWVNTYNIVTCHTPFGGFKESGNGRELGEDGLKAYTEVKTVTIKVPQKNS

[2] = molecular target: T2, Aldehyde dehydrogenase, dimeric NADP-preferring (Homo sapiens) (UniProt P30838); experiment: Effect on recombinant human ALDH3A1 using benzaldehyde as substrate at 20 uM preincubated for 2 mins with NAD+ followed by substrate addition by UV-Vis spectrophotometric analysis
T2 sequence (whole entry): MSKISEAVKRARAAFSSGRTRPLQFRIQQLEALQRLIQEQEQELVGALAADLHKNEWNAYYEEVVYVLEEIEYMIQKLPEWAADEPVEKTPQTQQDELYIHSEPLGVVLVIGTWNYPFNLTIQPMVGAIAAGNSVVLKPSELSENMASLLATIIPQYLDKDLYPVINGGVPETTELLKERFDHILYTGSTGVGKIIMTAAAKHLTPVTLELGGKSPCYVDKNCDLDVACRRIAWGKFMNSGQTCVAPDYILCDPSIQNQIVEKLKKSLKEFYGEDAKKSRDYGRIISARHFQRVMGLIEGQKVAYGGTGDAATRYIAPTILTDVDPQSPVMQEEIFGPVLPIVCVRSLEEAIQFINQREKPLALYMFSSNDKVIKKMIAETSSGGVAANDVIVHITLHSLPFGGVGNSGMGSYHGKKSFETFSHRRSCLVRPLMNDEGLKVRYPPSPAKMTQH

[3] = molecular target: T3, Succinate-semialdehyde dehydrogenase, mitochondrial (Homo sapiens) (UniProt P51649); experiment: Effect on human ALDH5A1 at 20 uM preincubated for 2 mins with NAD+ followed by aldehyde substrate addition
T3 sequence (whole entry): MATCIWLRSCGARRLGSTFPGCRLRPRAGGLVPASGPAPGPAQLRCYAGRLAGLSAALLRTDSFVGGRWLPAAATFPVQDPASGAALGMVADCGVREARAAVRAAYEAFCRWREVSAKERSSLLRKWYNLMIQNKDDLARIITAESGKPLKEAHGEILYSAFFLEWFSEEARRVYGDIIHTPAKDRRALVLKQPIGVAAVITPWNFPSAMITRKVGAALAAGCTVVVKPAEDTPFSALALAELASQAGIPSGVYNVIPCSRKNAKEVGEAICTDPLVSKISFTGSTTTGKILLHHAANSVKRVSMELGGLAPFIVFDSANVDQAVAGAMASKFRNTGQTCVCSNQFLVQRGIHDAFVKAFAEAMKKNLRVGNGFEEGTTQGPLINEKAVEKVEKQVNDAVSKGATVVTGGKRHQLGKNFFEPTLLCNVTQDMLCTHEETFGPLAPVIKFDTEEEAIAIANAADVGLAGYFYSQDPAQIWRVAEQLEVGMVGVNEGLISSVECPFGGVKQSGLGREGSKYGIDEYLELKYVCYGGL

[4] = molecular target: T4, Cytosolic 10-formyltetrahydrofolate dehydrogenase (Rattus norvegicus) (UniProt P28037); experiment: Effect on rat carboxy terminal ALDH domain of ALDH1L1 at 20 uM preincubated for 2 mins with NAD+ followed by aldehyde substrate addition
T4 sequence (whole entry): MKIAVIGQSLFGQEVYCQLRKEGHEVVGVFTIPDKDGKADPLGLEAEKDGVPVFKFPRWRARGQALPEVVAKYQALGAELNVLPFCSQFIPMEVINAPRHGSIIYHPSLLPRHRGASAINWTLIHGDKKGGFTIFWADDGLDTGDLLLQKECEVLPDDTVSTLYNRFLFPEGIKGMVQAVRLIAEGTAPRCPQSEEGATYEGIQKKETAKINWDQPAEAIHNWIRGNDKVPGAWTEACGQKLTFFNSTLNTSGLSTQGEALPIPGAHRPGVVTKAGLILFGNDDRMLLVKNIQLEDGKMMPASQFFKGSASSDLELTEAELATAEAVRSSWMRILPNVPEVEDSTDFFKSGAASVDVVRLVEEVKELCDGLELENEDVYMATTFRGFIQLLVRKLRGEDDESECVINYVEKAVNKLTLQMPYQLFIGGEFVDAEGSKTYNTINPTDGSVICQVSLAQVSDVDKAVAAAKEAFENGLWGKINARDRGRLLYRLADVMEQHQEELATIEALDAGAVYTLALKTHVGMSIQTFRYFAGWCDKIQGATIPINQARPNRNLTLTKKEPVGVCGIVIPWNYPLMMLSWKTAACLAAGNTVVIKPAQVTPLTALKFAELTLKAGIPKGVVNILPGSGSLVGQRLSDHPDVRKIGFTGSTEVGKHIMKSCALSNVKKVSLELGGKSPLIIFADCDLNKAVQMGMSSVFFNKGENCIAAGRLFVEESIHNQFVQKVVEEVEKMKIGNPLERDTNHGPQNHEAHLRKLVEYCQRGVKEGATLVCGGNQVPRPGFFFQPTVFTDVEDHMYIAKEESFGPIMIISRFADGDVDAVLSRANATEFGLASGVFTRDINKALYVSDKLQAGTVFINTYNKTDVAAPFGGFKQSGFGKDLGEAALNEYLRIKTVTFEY

Measured: Activity

CC(C)CCn1c(CN2CCN(C(=O)c3ccco3)CC2)nc2c1c(=O)n(C)c(=O)n2C
inactive: all assays above
